Patent publication US12351580B2, “NLRP3 modulators” (Innate Tumor Immunity, Inc., priority 2017, dated 2025)
Counter-ions that a name gives are not always drawn.

Target: T1, TLR7 (Homo sapiens, UniProt Q9NYK1)
T1 construct: host or cells: HEK-Blue cells (human HEK) co-expressing TLR7 and an NF-kB/AP1-inducible SEAP reporter
T1 sequence (Q9NYK1 27-1049): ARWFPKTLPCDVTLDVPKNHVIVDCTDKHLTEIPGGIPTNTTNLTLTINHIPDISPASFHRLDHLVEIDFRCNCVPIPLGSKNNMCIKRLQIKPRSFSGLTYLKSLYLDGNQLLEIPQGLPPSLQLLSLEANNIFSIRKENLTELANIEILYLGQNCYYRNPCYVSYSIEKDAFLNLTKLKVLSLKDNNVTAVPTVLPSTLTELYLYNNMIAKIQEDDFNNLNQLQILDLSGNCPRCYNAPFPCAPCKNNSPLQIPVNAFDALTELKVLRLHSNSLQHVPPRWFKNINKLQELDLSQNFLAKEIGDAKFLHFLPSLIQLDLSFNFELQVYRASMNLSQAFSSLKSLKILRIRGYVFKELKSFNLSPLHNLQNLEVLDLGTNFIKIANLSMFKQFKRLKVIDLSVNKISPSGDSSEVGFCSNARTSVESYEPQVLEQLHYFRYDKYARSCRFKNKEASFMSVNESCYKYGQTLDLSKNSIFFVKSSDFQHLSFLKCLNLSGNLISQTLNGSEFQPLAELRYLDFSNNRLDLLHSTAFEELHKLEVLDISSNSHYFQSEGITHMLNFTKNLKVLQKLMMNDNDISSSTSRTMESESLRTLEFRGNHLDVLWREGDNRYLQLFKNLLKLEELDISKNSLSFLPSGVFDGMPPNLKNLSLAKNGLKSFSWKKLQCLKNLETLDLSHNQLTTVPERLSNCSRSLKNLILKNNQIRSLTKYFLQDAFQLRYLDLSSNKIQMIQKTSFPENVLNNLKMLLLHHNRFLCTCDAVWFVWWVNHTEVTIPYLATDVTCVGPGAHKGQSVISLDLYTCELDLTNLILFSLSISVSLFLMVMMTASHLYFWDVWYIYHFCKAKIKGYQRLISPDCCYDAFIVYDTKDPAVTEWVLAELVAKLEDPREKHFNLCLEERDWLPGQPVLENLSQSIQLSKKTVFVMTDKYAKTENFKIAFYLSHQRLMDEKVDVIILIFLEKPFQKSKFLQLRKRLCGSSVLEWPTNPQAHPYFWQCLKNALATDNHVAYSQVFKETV
Experiment: In vitro human TLR7 binding reporter assay (HEK-Blue, NF-kB/AP1-inducible SEAP)
Format: cell-based
Conditions: activity range symbols
Summary of the method: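 Reporter cells are plated at 15,000 per well and rested 24 h. Next day, test compounds or DMSO are dispensed, followed by 18 h incubation at 37 °C, 5% CO2.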

EC50 [µM] | Structure (SMILES)
> 100 | CCNCc1nc2c(N)nc3cc(-c4cc[nH]n4)ccc3c2[nH]1 [Compound 101, 2-[(Ethylamino)methyl]-7-(1H-pyrazol-3-yl)-1H-imidazo[4,5-c]quinolin-4-amine hydrochloride]
> 100 | CN(Cc1nc2c(N)nc3cc(-c4cc[nH]n4)ccc3c2[nH]1)C(=O)C1CC1 [Compound 120]
> 100 | CC(=O)N(C)Cc1nc2c(N)nc3cc(-c4cc[nH]n4)ccc3c2[nH]1 [Compound 129]
> 100 | NCc1nc2c(N)nc3cc(-c4cc[nH]n4)ccc3c2[nH]1 [Compound 131]
20 to 100 | CC(c1nc2c(N)nc3cc(-c4cccnc4)ccc3c2[nH]1)N1CCCC1=O (centres unmarked) [Compound 138]
> 100 | CC(=O)N(Cc1nc2c(N)nc3cc(-c4cc[nH]n4)ccc3c2[nH]1)C(C)C [Compound 140]
> 100 | Nc1nc2ccc(Cl)cc2c2[nH]c(CN3CCCC3=O)nc12 [Compound 141]
20 to 100 | Nc1nc2cc(Cl)ccc2c2[nH]c(CN3CCCC3=O)nc12 [Compound 143]
20 to 100 | Nc1nc2cc(-c3ccc(Cl)nc3)ccc2c2[nH]c(CN3CCCC3=O)nc12 [Compound 153]
20 to 100 | Nc1nc2cc(-n3ncc4ccccc43)ccc2c2[nH]c(CN3CCCC3=O)nc12 [Compound 157]
> 100 | CCNCc1nc2c(N)nc3cc(-c4ncc[nH]4)ccc3c2[nH]1 [Compound 162]
> 100 | CCN(Cc1nc2c(N)nc3cc(-c4cc[nH]n4)ccc3c2[nH]1)C(=O)N1CCOCC1 [Compound 455, N-{[4-amino-7-(1H-pyrazol-3-yl)-1H-imidazo[4,5-c]quinolin-2-yl]methyl}-N-ethylmorpholine-4-carboxamide]
> 100 | CCN(Cc1nc2c(N)nc3cc(-c4cc[nH]n4)ccc3c2[nH]1)S(=O)(=O)C(C)C [Compound 459, N-{[4-amino-7-(1H-pyrazol-3-yl)-1H-imidazo[4,5-c]quinolin-2-yl]methyl}-N-ethylpropane-2-sulfonamide]
> 100 | CCn1c(CN2CCCC2=O)nc2c(N)nc3cc(-c4cccs4)ccc3c21 [Compound 463, 1-{[4-amino-1-ethyl-7-(thiophen-2-yl)-1H-imidazo[4,5-c]quinolin-2-yl]methyl}pyrrolidin-2-one]
> 100 | CCn1c(CN2CCCC2=O)nc2c(N)nc3cc(-n4cccn4)ccc3c21 [Compound 465, 1-{[4-amino-1-ethyl-7-(1H-pyrazol-1-yl)-1H-imidazo[4,5-c]quinolin-2-yl]methyl}pyrrolidin-2-one]
> 100 | CCn1c(CN2CCCC2=O)nc2c(N)nc3cc(-c4ccn[nH]4)ccc3c21 [Compound 466, 1-{[4-amino-1-ethyl-7-(1H-pyrazol-5-yl)-1H-imidazo[4,5-c]quinolin-2-yl]methyl}pyrrolidin-2-one]
> 100 | Nc1nc2cc(-c3cccs3)ccc2c2c1nc(CN1CCCC1=O)n2CCO [Compound 469, 1-{[4-amino-1-(2-hydroxyethyl)-7-(thiophen-2-yl)-1H-imidazo[4,5-c]quinolin-2-yl]methyl}pyrrolidin-2-one]

The remaining lines, values behind:

Structure (SMILES) | EC50 [µM]
CC(=O)N(C)Cc1nc2c(N)nc3cc(-n4cccn4)ccc3c2[nH]1 [Compound 102, N-((4-Amino-7-(1H-pyrazol-1-yl)-1H-imidazo[4,5-c]quinolin-2-yl)methyl)-N-methylacetamide] | > 100
CN(Cc1nc2c(N)nc3cc(-n4cccn4)ccc3c2[nH]1)S(C)(=O)=O [Compound 119] | > 100
CCN(Cc1nc2c(N)nc3cc(-c4cc[nH]n4)ccc3c2n1C)C(C)=O [Compound 121] | > 100
CCC(=O)N(C)Cc1nc2c(N)nc3cc(-c4cc[nH]n4)ccc3c2[nH]1 [Compound 122] | > 100
CCN(Cc1nc2c(N)nc3cc(-c4cc[nH]n4)ccc3c2[nH]1)S(C)(=O)=O [Compound 124] | > 100
CCC(=O)N(CC)Cc1nc2c(N)nc3cc(-c4cc[nH]n4)ccc3c2[nH]1 [Compound 125] | > 100
CCN(Cc1nc2c(N)nc3cc(-c4cc[nH]n4)ccc3c2[nH]1)C(=O)NC [Compound 128] | > 100
CCN(Cc1nc2c(N)nc3cc(-n4cccn4)ccc3c2[nH]1)C(N)=O [Compound 130] | > 100
CCN(Cc1nc2c(N)nc3cc(-n4nccn4)ccc3c2[nH]1)C(C)=O [Compound 132] | > 100
CC(C)(C)OC(=O)NCc1nc2c(N)nc3cc(-c4cc[nH]n4)ccc3c2[nH]1 [Compound 142] | > 100
CCNCc1nc2c(N)nc3cc(OC)ccc3c2[nH]1 [Compound 154] | > 100
CCN(Cc1nc2c(N)nc3cc(-c4ncc[nH]4)ccc3c2[nH]1)C(=O)OC(C)(C)C [Compound 155] | > 100
CCN(Cc1nc2c(N)nc3cc(OC)ccc3c2[nH]1)C(C)=O [Compound 158, N-((4-Amino-7-methoxy-1H-imidazo[4,5-c]quinolin-2-yl)methyl)-N-ethylacetamide] | > 100
CCN(Cc1nc2c(N)nc3cc(Cl)c(Cl)cc3c2[nH]1)C(C)=O [Compound 159] | > 100
CCN(Cc1nc2c(N)nc3cc(-c4cc[nH]n4)ccc3c2[nH]1)CC(C)C [Compound 453, 2-{[ethyl(2-methylpropyl)amino]methyl}-7-(1H-pyrazol-3-yl)-1H-imidazo[4,5-c]quinolin-4-amine] | > 100
CCN(CC)C(=O)N(CC)Cc1nc2c(N)nc3cc(-c4cc[nH]n4)ccc3c2[nH]1 [Compound 454, 1-{[4-amino-7-(1H-pyrazol-3-yl)-1H-imidazo[4,5-c]quinolin-2-yl]methyl}-1,3,3-triethylurea] | > 100
CCN(Cc1nc2c(N)nc3cc(-c4cc[nH]n4)ccc3c2[nH]1)C(=O)NC(C)(C)C [Compound 456, 1-{[4-amino-7-(1H-pyrazol-3-yl)-1H-imidazo[4,5-c]quinolin-2-yl]methyl}-3-tert-butyl-1-ethylurea] | > 100
CCNC(=O)N(CC)Cc1nc2c(N)nc3cc(-c4cc[nH]n4)ccc3c2[nH]1 [Compound 457, 1-{[4-amino-7-(1H-pyrazol-3-yl)-1H-imidazo[4,5-c]quinolin-2-yl]methyl}-1,3-diethylurea] | > 100
CCN(Cc1nc2c(N)nc3cc(-c4cc[nH]n4)ccc3c2[nH]1)S(=O)(=O)N(C)C [Compound 458, 2-{[(dimethylsulfamoyl)(ethyl)amino]methyl}-7-(1H-pyrazol-3-yl)-1H-imidazo[4,5-c]quinolin-4-amine] | > 100
CCCS(=O)(=O)N(CC)Cc1nc2c(N)nc3cc(-c4cc[nH]n4)ccc3c2[nH]1 [Compound 460, N-{[4-amino-7-(1H-pyrazol-3-yl)-1H-imidazo[4,5-c]quinolin-2-yl]methyl}-N-ethylpropane-1-sulfonamide] | > 100
CCNCc1nc2c(N)nc3cc(-c4ccn[nH]4)ccc3c2n1CCO [Compound 462, 2-[4-Amino-2-[(ethylamino)methyl]-7-(1H-pyrazol-5-yl)-1H-imidazo[4,5-c]quinolin-1-yl]ethan-1-ol] | > 100
CCNCc1nc2c(N)nc3cc(-c4ccn[nH]4)ccc3c2n1CC [Compound 464, 1-ethyl-2-[(ethylamino)methyl]-7-(1H-pyrazol-5-yl)-1H-imidazo[4,5-c]quinolin-4-amine] | > 100
CCNCc1nc2c(N)nc3cc(-n4cccn4)ccc3c2n1CC [Compound 467, 1-ethyl-2-((ethylamino)methyl)-7-(1H-pyrazol-1-yl)-1H-imidazo[4,5-c]quinolin-4-amine] | > 100
CCNCc1nc2c(N)nc3cc(-c4cccs4)ccc3c2n1CC [Compound 468, 1-ethyl-2-[(ethylamino)methyl]-7-(thiophen-2-yl)-1H-imidazo[4,5-c]quinolin-4-amine] | > 100
CCC(=O)N(CC)Cc1nc2c(N)nc3cc(-c4cccs4)ccc3c2n1CCO [Compound 470, N-{[4-amino-1-(2-hydroxyethyl)-7-(thiophen-2-yl)-1H-imidazo[4,5-c]quinolin-2-yl]methyl}-N-ethylpropanamide] | > 100
CCNCc1nc2c(N)nc3cc(-c4cccs4)ccc3c2n1CCO [Compound 471, 2-{4-amino-2-[(ethylamino)methyl]-7-(thiophen-2-yl)-1H-imidazo[4,5-c]quinolin-1-yl}ethan-1-ol] | > 100
CCN(Cc1nc2c(N)nc3cc(-c4cccs4)ccc3c2n1CC)C(C)=O [Compound 472, N-{[4-amino-1-ethyl-7-(thiophen-2-yl)-1H-imidazo[4,5-c]quinolin-2-yl]methyl}-N-ethylacetamide] | > 100
